Source: patent US20240408027A1, “HIGH DRUG LOADING POLYMERS” (priority 2021, published 2024)
Each block holds one compound with its values, some of them ahead of it.

Test: Drug loading of paclitaxel, etoposide, chloroquine into core library (Example 3)

core composition at loading maximum (polymer:drug 1:1): 90 % B
SMILES: CC(=O)O[C@H]1C(=O)[C@@]2(C)[C@H]([C@H](OC(=O)c3ccccc3)[C@]3(O)C[C@H](OC(=O)[C@H](O)[C@@H](NC(=O)c4ccccc4)c4ccccc4)C(C)=C1C3(C)C)[C@]1(OC(C)=O)CO[C@@H]1C[C@@H]2O [Paclitaxel, paclitaxel]

SMILES: CCN(CC)CCCC(C)Nc1ccnc2cc(Cl)ccc12 (stereo not drawn) [chloroquine]
loading trend with core composition (polymer:drug 1:1): increased loading with increasing H-bonding

LE+LC, fold higher in the absence of H-bonding groups in the core (100% B core): > 2 ×
SMILES: COc1cc([C@@H]2c3cc4c(cc3[C@@H](O[C@@H]3O[C@@H]5CO[C@@H](C)O[C@H]5[C@H](O)[C@H]3O)[C@H]3COC(=O)[C@H]23)OCO4)cc(OC)c1O [etoposide]
